Laboratory results from patent US20260092061A1, “COMPOUNDS FOR TARGETED PROTEIN DEGRADATION” (Amphista Therapeutics Limited, priority 2022, published 2026).

Assays:
[1] = target: T1, BRD9 (Homo sapiens, UniProt Q9H8M2); assay: Degradation of BRD9 (IF), immunofluorescence in MV4-11 cells, 24 hours (Assay Protocol 2); assay type: cell-based; design: A suspension of MV4-11 cells (ATCC CRL-9591) was prepared; host or cells: MV4-11
T1 sequence (Q9H8M2 1-597): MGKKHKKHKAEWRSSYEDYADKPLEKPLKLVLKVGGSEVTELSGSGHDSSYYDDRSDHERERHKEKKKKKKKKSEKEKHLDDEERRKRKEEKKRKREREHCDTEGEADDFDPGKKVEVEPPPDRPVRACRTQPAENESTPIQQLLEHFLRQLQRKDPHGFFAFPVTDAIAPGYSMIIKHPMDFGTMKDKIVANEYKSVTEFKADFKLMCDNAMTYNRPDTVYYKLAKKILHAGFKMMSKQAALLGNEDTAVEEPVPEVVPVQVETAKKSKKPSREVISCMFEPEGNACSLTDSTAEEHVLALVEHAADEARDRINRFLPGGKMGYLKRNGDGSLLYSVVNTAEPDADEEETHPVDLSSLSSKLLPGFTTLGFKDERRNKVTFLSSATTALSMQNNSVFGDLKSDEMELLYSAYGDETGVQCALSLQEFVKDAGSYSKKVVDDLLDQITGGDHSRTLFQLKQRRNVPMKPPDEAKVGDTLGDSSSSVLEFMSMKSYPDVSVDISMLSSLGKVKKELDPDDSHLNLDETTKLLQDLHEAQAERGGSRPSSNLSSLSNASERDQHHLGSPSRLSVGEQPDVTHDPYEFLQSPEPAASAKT
How it was run: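 MV4-11 cells treated with compound 24 h at 37° C., then fixed, permeabilised and immunostained for BRD9 (anti-BRD9 E4Q3F, Alexa 647 secondary, Hoechst counterstain). High-content imaging quantified nuclear BRD9 signal; % BRD9 remaining normalised to DMSO and 100 nM CFT-8634 controls.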

[2] = target: T1, BRD9; assay: BRD9 degradation, HiBiT-BRD9 KI HEK293 (LgBiT) cells, NanoGlo Lytic Endpoint assay (Assay Protocol 1); assay type: cell-based; details: BRD9 degradation; for Dmax / Dmax at 1 µM: HEK293; for Dmax at 1 µM: 1 μM compound at 6 h of treatment, read-out: Assay 1 Dmax
How it was run: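 HiBiT-tagged BRD9 knock-in HEK293 (LgBiT) cells exposed to compounds for 6 h at 37 °C, 5% CO2. Residual BRD9 measured by HiBiT lytic luminescence. % BRD9 remaining normalised to DMSO-treated cells (high) and no-cell wells (low).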

[3] = MV4-11, Table 4, BRD9 degradation, determined according to Assay Protocol 2, read-out: Dmax^2
[4] = Table 4, BRD9 degradation, determined according to Assay Protocol 2, read-out: DC50^2
[5] = Table 4, determined according to Assay Protocol 1, read-out: DC50^1
[6] = Table 4, determined according to Assay Protocol 1, read-out: Dmax^1
[7] = MV4-11, 24 h, Table 2, BRD9 degradation (IF), Assay Protocol 2, MV4-11 cells, read-out: Assay 2 DCmax
[8] = Table 2, Assay Protocol 1, 6 h of treatment, read-out: Assay 1 DC50
[9] = Assay protocol 2, BRD9 degradation, read-out: DC50
[10] = MV4-11, Assay protocol 2, BRD9 degradation, read-out: Dmax
[11] = Assay protocol 1, read-out: DC50
[12] = Assay protocol 1, read-out: Dmax

| Dmax [1, 3] | DC50 [1, 4] | DC50 [2, 5] | Dmax [2, 6] | Dmax [1, 10] | Dmax [2, 12] | SMILES | other results |
| --- | --- | --- | --- | --- | --- | --- | --- |
| 50 to 70% | < 25 nM | < 25 nM | – | – | – | COc1cc(-c2cn(C)c(=O)c(C)c2C)cc(OC)c1CN(C)C(=O)/C(C#N)=C/c1cccc(Br)n1 [BRD9ab, (E/Z)-3-(6-bromopyridin-2-yl)-2-cyano-N-(2,6-dimethoxy-4-(1,4,5-trimethyl-6-oxo-1,6-dihydropyridin-3-yl)benzyl)-N-methylacrylamide] | – |
| 50 to 70% | < 25 nM | < 25 nM | 50 to 70% | – | – | COc1cc(-c2cn(C)c(=O)c(C)c2C)cc(OC)c1CN1CCN(C(=O)/C(C#N)=C/C(C)(C)C)CC12CC2 [BRD9f, (E/Z)-2-(4-(2,6-dimethoxy-4-(1,4,5-trimethyl-6-oxo-1,6-dihydropyridin-3-yl)benzyl)-4,7-diazaspiro[2.5]octane-7-carbonyl)-4,4-dimethylpent-2-enenitrile] | – |
| 30 to 50% | < 25 nM | – | 30 to 50% | – | – | COc1cc(-c2cn(C)c(=O)c(C)c2C)cc(OC)c1C(=O)N(C)C1CCN(C(=O)/C(C#N)=C/C(C)(C)C)CC1 [BRD9u] | – |
| > 70% | < 25 nM | < 25 nM | > 70% | – | – | COc1cc(-c2cn(C)c(=O)c3ccsc23)cc(OC)c1CN1CCN(C(=O)/C(C#N)=C/C(C)(C)C)CC1 [BRD9w, (E/Z)-2-(4-(2,6-dimethoxy-4-(5-methyl-4-oxo-4,5-dihydrothieno[3,2-c]pyridin-7-yl)benzyl)piperazine-1-carbonyl)-4,4-dimethylpent-2-enenitrile] | – |
| – | – | – | – | – | – | COc1cc(-c2cn(C)c(=O)c3cnccc23)cc(OC)c1CN1CCC(N(C)c2cccc3c2CCN(C(=O)/C(C#N)=C/C(C)(C)C)C3C)CC1 (stereo not drawn) [Compound A30] | Dmax [1, 7]: < 50%; Dmax at 1 µM ([2]; Table 2, Assay Protocol 1): 40 to 70%; DC50 [2, 8]: 1.25 to 10 nM |
| – | – | – | – | – | – | COc1cc(-c2cn(C)c(=O)c3cnccc23)cc(OC)c1CN1C2CCC1CN(Cc1cccc3c1CCN(C(=O)/C(C#N)=C/C(C)(C)C)C3C)C2 (stereo not drawn) [Compound A49] | Dmax [1, 7]: 40 to 70%; DC50 ([1]; Table 2, BRD9 degradation (IF), Assay Protocol 2, MV4-11 cells, read-out: Assay 2 DC50): < 1.25 nM; Dmax at 1 µM ([2]; Table 2, Assay Protocol 1): 40 to 70%; DC50 [2, 8]: 1.25 to 10 nM |
| – | – | – | – | > 75% | 70 to 75% | COc1cc(-c2cn(C)c(=O)c(C)c2C)cc(OC)c1CN1CCN(C(=O)c2cccc(C3CCCN3C(=O)/C(C#N)=C/c3nccs3)c2)CC1 (stereo not drawn) [Compound B23] | DC50 [1, 9]: 1.25 to 10 nM; DC50 [2, 11]: 10 to 25 nM |
| – | – | – | – | > 75% | > 75% | COc1cc(-c2cn(C)c(=O)c(C)c2C)cc(OC)c1CN1CCN(Cc2cccc(C3CCCN3C(=O)/C(C#N)=C/c3cccc(C(F)(F)F)n3)c2)CC1 (stereo not drawn) [Compound B26] | DC50 [1, 9]: < 1.25 nM; DC50 [2, 11]: 1.25 to 10 nM |
| – | – | – | – | > 75% | 40 to 70% | COc1ccc([C@@H]2CN(C(=O)/C(C#N)=C/c3nccs3)C[C@H]2C(=O)N2CCN(Cc3c(OC)cc(-c4cn(C)c(=O)c(C)c4C)cc3OC)CC2)cc1 [Compound B27] | DC50 [1, 9]: 1.25 to 10 nM |
| – | – | – | – | 40 to 70% | 25 to 40% | COc1cc(-c2cn(C)c(=O)c(C)c2C)cc(OC)c1CN1CCN(C(=O)[C@@H]2CN(C(=O)/C(C#N)=C/c3nccs3)C[C@H]2c2ccccc2)CC1 [Compound B28] | – |
| – | – | – | – | > 75% | > 75% | COc1cc(-c2cn(C)c(=O)c(C)c2C)cc(OC)c1CN1CCN(Cc2cccc(C3CCCN3C(=O)/C(C#N)=C/c3nc(C(F)(F)F)cs3)c2)CC1 (stereo not drawn) [Compound B56] | DC50 [1, 9]: < 1.25 nM; DC50 [2, 11]: < 1.25 nM |
| – | – | – | – | 40 to 70% | 40 to 70% | CCCC(c1ccc(C(=O)N(C)CCC(=O)N2CCN(Cc3c(OC)cc(-c4cn(C)c(=O)c(C)c4C)cc3OC)CC2)cc1)N(C)C(=O)/C(C#N)=C/c1nccs1 (stereo not drawn) [Compound B180] | – |
| 50 to 70% | 25 to 200 nM | – | 30 to 50% | – | – | COc1cc(-c2cn(C)c(=O)c(C)c2C)cc(OC)c1CN1CCN(C(=O)C2CCCN(C(=O)/C(C#N)=C/c3nccs3)C2)CC1 (stereo not drawn) [Compound B205] | – |
| 50 to 70% | 25 to 200 nM | 25 to 200 nM | > 70% | – | – | COc1cc(-c2cn(C)c(=O)c(C)c2C)cc(OC)c1CN1CCN(C(=O)C2CCCN(C(=O)/C(C#N)=C/C(C)(C)C)C2)CC1 (stereo not drawn) [Compound B206] | – |
| > 70% | 25 to 200 nM | 25 to 200 nM | > 70% | – | – | COc1cc(-c2cn(C)c(=O)c(C)c2C)cc(OC)c1CN1CCN(C(=O)C2CC(C(C)C)CN(C(=O)/C(C#N)=C/C(C)(C)C)C2)CC1 (stereo not drawn) [Compound B207] | – |
| > 70% | < 25 nM | < 25 nM | > 70% | – | – | COc1ccc(C2CC(C(=O)N3CCN(Cc4c(OC)cc(-c5cn(C)c(=O)c(C)c5C)cc4OC)CC3)CN(C(=O)/C(C#N)=C/C(C)(C)C)C2)cc1 (stereo not drawn) [Compound B208] | – |
| > 70% | 25 to 200 nM | > 200 nM | 30 to 50% | – | – | COc1cc(-c2cn(C)c(=O)c(C)c2C)cc(OC)c1CN1CCN(C(=O)[C@@H]2CN(C(=O)/C(C#N)=C/c3nccs3)C[C@H]2C2CCCCC2)CC1 [Compound B209] | – |
| 50 to 70% | 25 to 200 nM | 25 to 200 nM | 50 to 70% | – | – | COc1cc(-c2cn(C)c(=O)c(C)c2C)cc(OC)c1CN1CCN(C(=O)[C@@H]2CN(C(=O)/C(C#N)=C/C(C)(C)C)C[C@H]2C2CCCCC2)CC1 [Compound B210] | – |
| 50 to 70% | > 200 nM | > 200 nM | > 70% | – | – | COc1cc(-c2cn(C)c(=O)c(C)c2C)cc(OC)c1CN1CCN(C(=O)[C@@H]2CN(C(=O)/C(C#N)=C/c3ccc(F)cc3)C[C@H]2C2CCCCC2)CC1 [Compound B211] | – |
| 50 to 70% | 25 to 200 nM | 25 to 200 nM | 50 to 70% | – | – | COc1cc(-c2cn(C)c(=O)c(C)c2C)cc(OC)c1CN1CCN(C(=O)[C@@H]2CN(C(=O)/C(C#N)=C/C(C)(C)C)C[C@H]2C(C)C)CC1 [Compound B212] | – |
| 50 to 70% | > 200 nM | – | 30 to 50% | – | – | COc1cc(-c2cn(C)c(=O)c(C)c2C)cc(OC)c1CN1CCN(C(=O)[C@@H]2CN(C(=O)/C(C#N)=C/c3nccs3)C[C@H]2c2cccc(C)c2)CC1 [Compound B213] | – |
| – | – | – | – | 40 to 70% | 70 to 75% | COc1cc(-c2cn(C)c(=O)c(C)c2C)cc(OC)c1CN1CCN(Cc2cccc3c2CCN(C(=O)/C(C#N)=C/C(C)(C)C)C3(C)C)C2(CC2)C1 [Compound C9, (E/Z)-2-(5-((7-(2,6-dimethoxy-4-(1,4,5-trimethyl-6-oxo-1,6-dihydropyridin-3-yl)benzyl)-4,7-diazaspiro[2.5]octan-4-yl)methyl)-1,1-dimethyl-1,2,3,4-tetrahydroisoquinoline-2-carbonyl)-4,4-dimethylpent-2-enenitrile] | DC50 [1, 9]: 25 to 1000 nM; DC50 [2, 11]: 25 to 1000 nM |
